From patent publication US11498903B2 (BRISTOL-MYERS SQUIBB COMPANY, priority 2017, dated 2022)
Read-outs that look alike come from different tables or passages of the source.

Biological target: T1, human APJ receptor (Homo sapiens, UniProt P35414)
T1 construct: expressed in transfected cells
T1 sequence (P35414 1-380): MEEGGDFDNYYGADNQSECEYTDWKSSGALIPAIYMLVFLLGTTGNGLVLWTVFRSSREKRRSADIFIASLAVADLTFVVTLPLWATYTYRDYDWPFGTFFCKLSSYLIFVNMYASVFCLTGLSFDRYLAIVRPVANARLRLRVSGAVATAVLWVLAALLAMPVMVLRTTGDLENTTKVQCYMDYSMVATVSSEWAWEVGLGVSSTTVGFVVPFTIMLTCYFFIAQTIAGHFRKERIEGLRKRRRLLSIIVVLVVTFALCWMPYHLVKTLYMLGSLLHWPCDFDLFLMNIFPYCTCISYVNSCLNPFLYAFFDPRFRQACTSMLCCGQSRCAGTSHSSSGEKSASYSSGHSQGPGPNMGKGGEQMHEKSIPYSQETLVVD
Assay: Intracellular cAMP accumulation assay (APJ hcAMP, HTRF)
Type: cell-based
Conditions: HEK293 cells stably expressing human APJ receptor
Procedure, shortened: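 HEK293 cells stably expressing human APJ, 5,000/well, incubated 30 min at room temperature with compound plus […] and 2 μM forskolin. cAMP read by HTRF against a cAMP standard curve; EC50 from variable-slope sigmoidal fit, Ymax as % of (Pyr1)apelin-13 inhibition.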

[1] = Table 1, inhibition of forskolin-mediated cAMP production, read-out: APJ hcAMP EC50
[2] = Table 3, read-out: APJ cAMP Human EC50

| Compound | EC50 [1] [nM] | EC50 [2] [nM] |
| --- | --- | --- |
| COc1ccc(NC(=O)c2ccc(-c3c(Cl)cccc3-c3nc4cc(F)c(OC)cc4[nH]3)c(C(=O)O)c2)cc1 [Example 125, (S)-2′-chloro-6′-(5-fluoro-6-methoxy-1H-1,3-benzodiazol-2-yl)-4-[(4-methoxyphenyl)carbamoyl]-[1,1′-biphenyl]-2-carboxylic acid] | 10 to 100 | 10 to 100 |
| COc1cc2[nH]c(-c3cccc(Cl)c3-c3ccc(C(=O)N4CCC(Cc5ccccc5)CC4)cc3C(=O)O)nc2cc1F [Example 126, (S)-4-(4-benzylpiperidine-1-carbonyl)-2′-chloro-6′-(5-fluoro-6-methoxy-1H-1,3-benzodiazol-2-yl)-[1,1′-biphenyl]-2-carboxylic acid] | – | 101 to 500 |
| CCC[C@@H](NC(=O)c1ccc(-c2c(Cl)cccc2-c2nc3ccccc3[nH]2)c(-c2n[nH]c(=O)o2)c1)c1ccccc1 [Example 129, 2′-(1H-1,3-benzodiazol-2-yl)-6′-chloro-2-(5-oxo-4,5-dihydro-1,3,4-oxadiazol-2-yl)-N-[(1R)-1-phenylbutyl]-[1,1′-biphenyl]-4-carboxamide] | – | 10 to 100 |
| CCC[C@@H](NC(=O)c1ccc(-c2c(C)cccc2-c2nc3ccccc3n2C)c(C(=O)O)c1)c1ccccc1 [Example 137, 2′-methyl-6′-(1-methyl-1H-1,3-benzodiazol-2-yl)-4-{[(1R)-1-phenylbutyl]carbamoyl}-[1,1′-biphenyl]-2-carboxylic acid] | 10 to 100 | 10 to 100 |
| COC[C@@H](NC(=O)c1ccc(-c2cc(Cl)ccc2-c2nc3ccccc3n2C)c(C(=O)O)c1)c1ccccc1 [Example 138, 5′-chloro-4-{[(1S)-2-methoxy-1-phenylethyl]carbamoyl}-2′-(1-methyl-1H-1,3-benzodiazol-2-yl)-[1,1′-biphenyl]-2-carboxylic acid] | 101 to 500 | 101 to 500 |
| CCC[C@@H](NC(=O)c1ccc(-c2c(F)cccc2-c2nc3cc(OC)ccc3[nH]2)c(C(=O)O)c1)c1ccccc1 [Example 143, 2′-fluoro-6′-(5-methoxy-1H-1,3-benzodiazol-2-yl)-4-{[(1R)-1-phenylbutyl]carbamoyl}-[1,1′-biphenyl]-2-carboxylic acid] | – | < 10 |

Continued, values first:

| EC50 [1] [nM] | EC50 [2] [nM] | Compound |
| --- | --- | --- |
| – | < 10 | CCC[C@@H](NC(=O)c1ccc(-c2c(Cl)cccc2-c2nc3cc(OC)c(F)cc3[nH]2)c(C(=O)NOC)c1)c1ccccc1 [Example 127, 2′-chloro-6′-(6-fluoro-5-methoxy-1H-1,3-benzodiazol-2-yl)-N2-methoxy-N4-[(1R)-1-phenylbutyl]-[1,1′-biphenyl]-2,4-dicarboxamide] |
| – | < 10 | CCC[C@@H](NC(=O)c1ccc(-c2c(Cl)cccc2-c2nc3cc(OC)c(F)cc3[nH]2)c(-c2n[nH]c(=O)o2)c1)c1ccccc1 [Example 130, 2′-chloro-6′-(6-fluoro-5-methoxy-1H-1,3-benzodiazol-2-yl)-2-(5-oxo-4,5-dihydro-1,3,4-oxadiazol-2-yl)-N-[(1R)-1-phenylbutyl]-[1,1′-biphenyl]-4-carboxamide] |
| – | < 10 | CCC[C@@H](NC(=O)c1ccc(-c2c(C)cccc2-c2nc3ccccc3[nH]2)c(C(=O)O)c1)c1ccccc1 [Example 139, 2′-(1H-1,3-benzodiazol-2-yl)-6′-methyl-4-{[(1R)-1-phenylbutyl]carbamoyl}-[1,1′-biphenyl]-2-carboxylic acid] |
| – | < 10 | CCC[C@@H](NC(=O)c1ccc(-c2c(F)cccc2-c2nc3ccccc3[nH]2)c(C(=O)O)c1)c1ccccc1 [Example 140, 2′-(1H-1,3-benzodiazol-2-yl)-6′-fluoro-4-{[(1R)-1-phenylbutyl]carbamoyl}-[1,1′-biphenyl]-2-carboxylic acid] |
| < 10 | < 10 | CCC[C@@H](NC(=O)c1ccc(-c2c(C)cccc2-c2nc3cc(OC)ccc3[nH]2)c(C(=O)O)c1)c1ccccc1 [Example 142, 2′-(5-methoxy-1H-1,3-benzodiazol-2-yl)-6′-methyl-4-{[(1R)-1-phenylbutyl]carbamoyl}-[1,1′-biphenyl]-2-carboxylic acid] |
